System: human Kif5B 1–905-EGFP on stabilized MTs
Assay: Single-molecule kinesin-1 motility assay on stabilized MTs (TIRF)
Assay type: biochemical
Experimental: To gain mechanistic insight into the kinesin phenotype observed in cells, we reduced system complexity using an in vitro reconstitution assay. Specifically, we performed time-lapse imaging using total internal reflection fluorescence (TIRF) microscopy with immobilized and stabilized MTs in a flow chamber, into which we introduced 1.08 nM kinesin-1 motors (constitutively active human Kif5B 1–905-EGFP). We then analyzed individual kinesin movements to quantify landing rates (number of motors per unit MT length per unit time), run lengths, interaction times, and average velocities (Figure D, Movies S12–S15). In contrast to our experiments in cells, here we evaluated each structural modification individually to dissect the effects of MT lattice parameters on kinesin-1 mediated transport.
Total Internal Reflection Fluorescence microscopy experiments were performed on an inverted widefield microscope Nikon-Ti2 E, equipped with a motorized XY-stage, a perfect focus system, Apo TIRF 60× oil NA 1.49 objective and PRIME BSY (Teledyne Photometrics) camera. MTs were visualized using Interference Reflection microscopy (IRM) and fluorescently labeled proteins were visualized sequentially by switching between microscope filter cubes for GFP and mCherry channels. The microscopes were controlled using NIS Elements software (Nikon). All experiments were conducted at RT.
Microscopy chambers were prepared from two sandwiched silanized glass coverslips (22 × 22 mm^2 and 18 × 18 mm^2) attached through parafilm strips (heated for 15–20 s at 60 °C and gently pressed together) to form ∼2.5 mm wide parallel flow channels. Prior to the chamber assembly, the coverslips were washed in 3 M KOH, cleaned using Zepto plasma cleaner (Diener electronic) and silanized with hexamethyldisilazane. Flow channels were first incubated with 40 μgml^–1 antibiotin antibodies (Sigma, B3640) in PBS for 10 min, followed by incubation with 1% Pluronic F127 (Sigma-Aldrich, P2443) in PBS for at least 1 h. F127 was washed with BRB80 (80 mM PIPES, 1 mM EGTA, 1 mM MgCl2, pH 6.9).
Porcine brain tubulin was isolated using the high-molarity PIPES procedure then mixed with Biotin labeled tubulin (Cytoskeleton Inc., T333P) in 1:49 ratio. All MTs were polymerized using 2% biotin-labeled tubulin. […] Polymerized MTs were centrifuged for 30 min at 18,000g in a Microfuge 18 Centrifuge (Beckman Coulter’s). […] Drug stabilized preassembly MTs (polymerized in the presence of drugs and GTP, stored and imaged in presence of drug) were polymerized from 4 mg mL^–1 biotinylated tubulin for 30 min at 37 °C in BRB80 supplemented with 4 mM MgCl2, 40 μM drug of interest in 5% DMSO, and 1 mM GTP. Polymerized MTs were centrifuged for 30 min at 18,000g in a Microfuge 18 Centrifuge (Beckman Coulter’s). […] GMPCPP stabilized MTs (GMPCPP polymerized) were assembled from 4 mg mL^–1 biotinylated tubulin for 2 h at 37 °C in BRB80 supplemented with 1 mM MgCl2 and 1 mM GMPCPP (Jena Bioscience, NU-405). Polymerized MTs were centrifuged for 30 min at 18,000g in a Microfuge 18 Centrifuge (Beckman Coulter’s) and pellets were resuspended and kept in BRB80.
Stabilized MTs were flushed into the channel and incubated for 15–30 s to allow for surface attachment. Unbound MTs were removed by washing with BRB80 supplemented with 10 μM of drug. Prior the experiment, the solution was exchanged by motility buffer, MB (BRB80 containing 10 mM DTT, 20 mM D-glucose, 0.1% Tween-20, 0.5 mg/mL casein, 1 mM Mg-ATP, 0.02 mg/mL catalase, 0.22 mg/mL glucose oxidase, 10 μM drug). Subsequently, a solution containing either 1.08 nM Kif5b-EGFP or 10/40 nM mCherry-Tau in MB was introduced into the chamber.
To assess kinesin-EGFP motility along MTs, an IRM image (50 ms exposure) was acquired followed by a 1 min video using 488 nm laser excitation (20% laser intensity, 300 ms exposure) with no delay. Two to three videos were recorded from different fields within the same channel and at least 2 channels were measure for each experimental condition. […]

SMILES | kinesin-1 landing rate on stabilized MTs (1.08 nM Kif5b-EGFP, 10 μM drug) | kinesin-1 time bound on stabilized MTs (1.08 nM Kif5b-EGFP, 10 μM drug) | kinesin-1 velocity on stabilized MTs (1.08 nM Kif5b-EGFP, 10 μM drug) | kinesin-1 run length on stabilized MTs (compared to native-like MTs)
CC(=O)OC1C(=O)C2(C)C(OC(=O)CCCCC(=O)OC3CCc4ccccc43)CC3OCC3(OC(C)=O)C2C(OC(=O)c2ccccc2)C2(O)CC(OC(=O)C(O)C(NC(=O)c3ccccc3)c3ccccc3)C(C)=C1C2(C)C (stereo not shown) [1a, 7-O-(6″-O-(2‴,3‴-Dihydroinden-1‴-yl)hexanedioyl) Paclitaxel] | increased on 1a compared with 1b | increased the time bound | decreased the velocity | –
CC(=O)O[C@H]1C(=O)[C@@]2(C)[C@H]([C@H](OC(=O)c3ccccc3)[C@]3(O)C[C@H](OC(=O)[C@H](O)[C@@H](NC(=O)c4ccccc4)c4ccccc4)C(C)=C1C3(C)C)[C@]1(OC(C)=O)CO[C@@H]1C[C@@H]2O [PTX, Paclitaxel] | – | – | – | reduce run length

From article PMC13492380, “Dissecting Structural and Functional Determinants of Microtubules Stabilization through Guided Chemical Modulation” (Journal of Medicinal Chemistry, 2026)
